Values after ≈ are worked out from the molar mass of the structure shown. Values joined by “and” are separate entries in the source; they are usually repeats but may differ in a detail not shown here. Equal values may be shown once.
Legend:
[1] = test system: Mycobacterium tuberculosis; assay: Antibacterial activity against Mycobacterium tuberculosis H37Ra; assay type: functional
[2] = Inhibition of Pseudomonas aeruginosa DHFR
Pseudomonas aeruginosa [3] = assay: Antibacterial activity against Pseudomonas aeruginosa PA01; assay type: functional
[4] = test system: Mycobacterium tuberculosis; assay: Antibacterial activity against Mycobacterium tuberculosis H37Rv; assay type: functional
Escherichia coli [5] = assay: Antibacterial activity against Escherichia coli NR698; assay type: functional
Escherichia coli [6] = assay: Antibacterial activity against Escherichia coli ATCC 25922; assay type: functional
[7] = Inhibition of Staphylococcus aureus DHFR F98Y mutant
Dihydrofolate reductase [8] = target: T1, Dihydrofolate reductase (Staphylococcus aureus, UniProt P0A017); assay: Inhibition of Staphylococcus aureus DHFR
T1 sequence (P0A017 whole entry): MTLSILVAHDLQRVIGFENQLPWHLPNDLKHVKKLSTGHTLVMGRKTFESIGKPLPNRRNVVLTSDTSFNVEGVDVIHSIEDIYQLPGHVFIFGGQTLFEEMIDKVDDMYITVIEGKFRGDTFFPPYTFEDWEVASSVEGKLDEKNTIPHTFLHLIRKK

Dihydrofolate reductase [9] = target: T2, Dihydrofolate reductase (Mycobacterium tuberculosis, UniProt P9WNX1)
T2 sequence (P9WNX1 whole entry): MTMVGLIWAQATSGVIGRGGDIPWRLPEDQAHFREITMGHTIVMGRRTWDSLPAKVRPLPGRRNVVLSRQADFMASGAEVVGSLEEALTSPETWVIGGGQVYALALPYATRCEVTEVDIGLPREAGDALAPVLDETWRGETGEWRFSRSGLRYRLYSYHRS
Description: Inhibition of Mycobacterium tuberculosis DHFR

[10] = Cytotoxicity against african green monkey Vero cells; assay type: toxicity, cell-based; details: chlorocebus sabaeus
Staphylococcus aureus [11] = assay: Antibacterial activity against Staphylococcus aureus ATCC 29213 harboring wild type DHFR; assay type: functional
Dihydrofolate reductase [12] = target: T1, Dihydrofolate reductase; assay: Inhibition of wild type Staphylococcus aureus DHFR
Staphylococcus aureus [13] = assay: Antibacterial activity against methicillin resistant Staphylococcus aureus CCARM3167; assay type: functional
Staphylococcus aureus [14] = assay: Antibacterial activity against Staphylococcus aureus RN4220 harboring wild type DHFR; assay type: functional
[15] = test system: Mycobacterium tuberculosis; assay: Antibacterial activity against Mycobacterium tuberculosis H37Rv incubated for 7 days by resazurin dye based broth microdilution assay; assay type: functional; details: 168 h, time 7 day
Staphylococcus aureus [16] = assay: Antibacterial activity against Staphylococcus aureus ATCC 43300 harboring wild type DHFR; assay type: functional
Staphylococcus aureus [17] = assay: Antibacterial activity against Staphylococcus aureus harboring DHFR F98Y mutant; assay type: functional
[18] = test system: Mycobacterium tuberculosis; assay: Antibacterial activity against Mycobacterium tuberculosis Erdman; assay type: functional
Pseudomonas aeruginosa [19] = assay: Synergistic antibacterial activity against Pseudomonas aeruginosa PA01 assessed as fractional inhibitory concentration index in presence of quercetin; assay type: functional
Pseudomonas aeruginosa [20] = assay: Synergistic antibacterial activity against Pseudomonas aeruginosa PA01 assessed as fractional inhibitory concentration index in presence of gallic acid; assay type: functional
Pseudomonas aeruginosa [21] = assay: Synergistic antibacterial activity against Pseudomonas aeruginosa PA01 assessed as fractional inhibitory concentration index in presence of myricetin; assay type: functional
Pseudomonas aeruginosa [22] = assay: Synergistic antibacterial activity against Pseudomonas aeruginosa PA01 assessed as fractional inhibitory concentration index in presence of protocatechuic acid; assay type: functional

With `Nc1nc(N)c(-c2ccc(C(=O)Nc3cccc(OC(F)(F)F)c3)cc2)c(OCc2cncs2)n1` the MIC [1] was 12.4 µM and 6.25 µg/mL.

With `O=C(O)c1cc(O)c(O)c(O)c1` [GALLIC ACID] the IC50 [2] was 9620 µM.

With `O=c1c(O)c(-c2cc(O)c(O)c(O)c2)oc2cc(O)cc(O)c12` [MYRICETIN] the MIC (Pseudomonas aeruginosa [3]) was 1550 µM (≈ 493 µg/mL) and the IC50 [2] was 520 µM.

In the case of `Nc1nc(N)c2cc(C(F)(F)F)ccc2n1`, the MIC99 [4] is reported as 207 µM (≈ 47.2 µg/mL).

In the case of `CCc1nc(N)nc(N)c1C#C[C@@H](C)c1cc(OC)cc(-c2ccc(C(=O)O)cc2)c1`, the MIC (Escherichia coli [5]) is reported as 7.5 nM (≈ 0.00312 µg/mL) and the MIC (Escherichia coli [6]) is reported as 24 µM (≈ 10 µg/mL).

In the case of `CCC[C@H]1c2ccccc2C=NN1C(=O)/C=C/c1cc(Cc2cnc(N)nc2N)cc(OC)c1OC`, the IC50 [7] is reported as 1.8 nM.

Work on `O=C(O)c1ccc(O)c(O)c1` [PROTOCATECHUIC ACID] yielded an IC50 [2] of 10700 µM.

`COc1cc(Cc2cnc(N)nc2N)cc(OC)c1OC` [TRIMETHOPRIM] showed an MIC (Pseudomonas aeruginosa [3]) of 110 µM (≈ 31.9 µg/mL) and an IC50 [2] of 88.7 µM.

In the case of `Cc1ccc(CN2C(=O)/C(=C3\SC(=S)N(C(=O)O)C3=O)c3ccccc32)cc1`, the IC50 (Dihydrofolate reductase [8]) is reported as 460 nM.

`CCCCc1nc(Cl)c(C2NC(=O)NC(C)=C2C(=O)Nc2ccc(F)cc2)[nH]1` (stereo not drawn) showed an IC50 (Dihydrofolate reductase [9]) of over 24.6 µM and an MIC [4] of 0.96 µM (≈ 0.39 µg/mL).

Compound `O=C(O[C@@H]1Cc2c(O)cc(O)cc2O[C@@H]1c1cc(O)c(O)c(O)c1)c1cc(O)c(O)c(O)c1` [EPIGALOCATECHIN GALLATE] has an IC50 (Dihydrofolate reductase [9]) of 10.9 µM and an MIC [4] of 4.25 µM (≈ 1.95 µg/mL).

For `Nc1nc(N)nc(-c2ccc(OCc3ccc(Cl)cc3)cc2)n1`, the CC50 [10] was 464 µM and the MIC [4] was 1.76 µM (≈ 0.577 µg/mL).

With `CCCc1cc(N)cc(N)c1Cc1cc(/C=C/C(=O)N2N=Cc3ccccc3C2C=C(C)C)c(OC)c(OC)c1` (stereo not drawn) the MIC (Staphylococcus aureus [11]) was 3.72 µM (≈ 2 µg/mL) and the Ki (Dihydrofolate reductase [12]) was 4 nM.

In the case of `CC[C@@H]1CC[C@H]2C(CC)(CC)[C@H](O)CC[C@]2(CC)[C@@]12Cc1c(O)cc3c(c1O2)COC3=O`, the IC50 (Dihydrofolate reductase [12]) is reported as 41500 nM, the MIC (Staphylococcus aureus [13]) is reported as 72.3 µM (≈ 32 µg/mL) and the MIC (Staphylococcus aureus [14]) is reported as 72.3 µM (≈ 32 µg/mL).

Compound `Nc1nc(N)c2c(ccc3c2ccn3Cc2ccc3ccccc3c2)n1` has an IC50 (Dihydrofolate reductase [9]) of 0.00096 µM and an MIC95 [4] of 3.12 µM (≈ 1.06 µg/mL).

In the case of `COc1ccc(-c2nc3ccccc3c(=O)[nH]2)cc1`, the MIC [15] is reported as 125 µM and 31.5 µg/mL and the IC50 (Dihydrofolate reductase [9]) is reported as 49.1 µM.

With `COc1ccc(-c2nc(N)nc(N)n2)cc1Oc1ccc(Cl)cc1` the CC50 [10] was 335 µM and the MIC [4] was 4.92 µM (≈ 1.69 µg/mL).

In the case of `CCc1nc(N)nc(N)c1C#C[C@@H](C)c1cc(OC)cc(-c2ccncc2)c1`, the IC50 (Dihydrofolate reductase [12]) is reported as 18 nM, the IC50 [7] is reported as 111 nM and the MIC (Staphylococcus aureus [16]) is reported as 0.11 µM (≈ 0.0411 µg/mL). The MIC (Staphylococcus aureus [17]) was 1.75 µM (≈ 0.653 µg/mL).

For `O=c1[nH]c(=O)c2c(ncn2Cc2ccccc2)[nH]1`, the MIC [15] was 130 µM and 31.5 µg/mL and the IC50 (Dihydrofolate reductase [9]) was 38.6 µM.

Compound `O=c1c(O)c(-c2ccc(O)c(O)c2)oc2cc(O)cc(O)c12` [QUERCETIN] has an MIC (Pseudomonas aeruginosa [3]) of 1650 µM (≈ 499 µg/mL) and an IC50 [2] of 595 µM.

Compound `CCc1nc(N)nc(N)c1C#C[C@H](C)c1cc(OC)cc(-c2ccncc2)c1` has an IC50 (Dihydrofolate reductase [12]) of 15 nM, an IC50 [7] of 510 nM and an MIC (Staphylococcus aureus [16]) of 0.874 µM (≈ 0.326 µg/mL). For the same compound, the MIC (Staphylococcus aureus [17]) was 14 µM (≈ 5.22 µg/mL).

Compound `CCc1nc(N)nc(N)c1C#C[C@H](C)c1cc(OC)cc(-c2ccc(C(=O)O)cc2)c1` has an MIC [18] of under 0.072 µM and an MIC [4] of under 0.072 µM.

For `Cc1cc(NS(=O)(=O)c2ccc(N)cc2)no1` [SULFAMETHOXAZOLE], the “fractional inhibitory concentration index (FICI)” value (Pseudomonas aeruginosa [19]) was 0.38, the MIC (Pseudomonas aeruginosa [3]) was 500 µM (≈ 127 µg/mL) and the “fractional inhibitory concentration index (FICI)” value (Pseudomonas aeruginosa [20]) was 0.38. The “fractional inhibitory concentration index (FICI)” value (Pseudomonas aeruginosa [21]) was 0.38, the “fractional inhibitory concentration index (FICI)” value (Pseudomonas aeruginosa [22]) was 0.25 and the IC50 [2] was 140 µM.

`COc1cc(-c2nc(N)nc(N)n2)ccc1OCc1ccc(F)cc1` gave a CC50 [10] of 360 µM and an MIC [4] of 3.39 µM (≈ 1.16 µg/mL).

`CCc1nc(N)nc(N)c1C#CCc1cc(OC)cc(-c2ccc(C(=O)O)cc2)c1` gave an MIC [18] of 1.24 µM (≈ 0.5 µg/mL) and an MIC [4] of 0.311 µM (≈ 0.125 µg/mL).

Source: ChEMBL document CHEMBL5233242, “Dihydrofolate reductase inhibitors for use as antimicrobial agents” (Eur J Med Chem, 2020)
